# Test results reported in patent US12551532B2, “Long-acting amylin receptor agonists and uses thereof” (Eli Lilly and Company, priority 2021, dated 2026).
# Starred links: 1 amine or outer side, 2 acyl side, 3 side chain; linkers in the order of their positions; H or OH if unused. Positions of bridges follow the written chain, without caps; N, C: chain ends. Non-standard residues stand in square brackets, D forms with d. Residues, ends and D or L forms follow the SMILES beside them. Groups on a side chain read outwards from the residue. *: point of attachment. C20 diacid = O=C(O)CCCCCCCCCCCCCCCCCCC(=O)*; γGlu = O=C(O)[C@H](CCC(=O)[*:2])N[*:1]; αMeF = C[C@](N)(Cc1ccccc1)C(=O)O; NMeD = CN[C@@H](CC(=O)O)C(=O)O; NMeN = CN[C@@H](CC(N)=O)C(=O)O; Orn = NCCC[C@H](N)C(=O)O; CH2 = C([*:1])[*:2]
# What was measured:
# [1] = target: T1, human calcitonin receptor (hCTR) (Homo sapiens, UniProt P30988); assay: hCTR competitive radioligand binding filter assay (125I-hCT); settings: ± SE; membranes of hCTR overexpressing cells
# T1 construct: expressed in transfected cells; host or cells: membranes of UM-UC-3 (UMUC3) cells stably expressing human CTa
# T1 sequence (P30988 25-474): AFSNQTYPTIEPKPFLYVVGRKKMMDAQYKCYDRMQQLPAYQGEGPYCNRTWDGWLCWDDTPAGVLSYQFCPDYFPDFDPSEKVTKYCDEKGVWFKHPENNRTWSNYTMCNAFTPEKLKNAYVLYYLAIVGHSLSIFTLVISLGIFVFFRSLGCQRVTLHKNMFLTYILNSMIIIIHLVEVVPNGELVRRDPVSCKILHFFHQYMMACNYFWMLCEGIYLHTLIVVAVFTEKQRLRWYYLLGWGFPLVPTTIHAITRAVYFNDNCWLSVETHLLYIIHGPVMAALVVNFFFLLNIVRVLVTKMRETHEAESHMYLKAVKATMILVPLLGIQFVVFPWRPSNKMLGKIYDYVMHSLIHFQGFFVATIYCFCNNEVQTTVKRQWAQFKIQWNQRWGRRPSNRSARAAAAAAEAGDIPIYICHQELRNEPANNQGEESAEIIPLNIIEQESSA
# Description: (§1) The equilibrium dissociation constants (Kd) for the various receptor/radioligand interactions are determined from saturation binding analysis using the same reagents and buffers as described below for compound testing.
# The receptor binding affinity (Ki) of rAMY, hCT, and hAMY agonist peptides on hCTR membranes is determined from a competitive radioligand binding filter assay.
# hAMY1R = target: T2, hAMY1R (Homo sapiens, UniProt O60894+P30988); assay: hAMY1R competitive radioligand binding filter assay (125I-rAMY); settings: ± SE; membranes of hAMY1R overexpressing cells
# T2 construct: expressed in transfected cells
# Description: as §1
# The receptor binding affinity (Ki) of rAMY, hCT, and hAMY agonist peptides are determined from a competitive radioligand binding filter assay. The assay buffer consists of (in mM) 50 HEPES, pH 7.1, 5 MgCl2, 5 KCl, 0.2% (w/v) bacitracin, 0.003% (w/v) saponin and is used to dilute radioligand and membrane preparation. Binding reactions are carried out in 0.1 mL total reaction volume in a polystyrene 96 deep-well assay block. […] Test compounds and non-specific binding (NSB—defined as 300 nM rAMY) are added to aliquots of radioactivity buffer. […] The binding reaction is initiated by the addition of 0.05 mL of 200 μg/mL hAMY1R diluted in assay buffer to the radioactivity. Assay blocks are gently vortexed, sealed with parafilm, and incubated at RT for approximately 20 hours. […] At the end of the incubation, bound ligand is separated from free by addition of an ice cold quench buffer consisting of 100 mM NaCl, 50 mM TRIS-HCl pH 7.1 and immediately collected over the filter mat by vacuum filtration with a TomTec 96 well filter harvester using the following filter protocol (Dry time, 7; Cycle 3 repeat, 0; Wash Time, 1; Soak Time, 1; 1st Aspirate Time, 4; Wash/Aspirate Time, 7; 2nd Aspirate, 4; air pressure 2 PSI).
# CD4+ T cells = assay: T cell proliferation assay; settings: 7-10 donors with diverse MHC
# Description: This assay assesses the ability of tested antibodies or tested MAPPS peptides to activate CD4+ T cells by inducing cellular proliferation. CD8+ T cell depleted PBMC's are prepared and labeled with CFSE. Each sample is tested with media control, keyhole limpet haemocyanin (KLH; positive clinical benchmark control), tested antibodies, or tested MAPPS peptides. Cultures are incubated for 7 days. On day 7, samples are analyzed by flow cytometry.
# [2] = Pharmacokinetics in male Sprague Dawley rats; assay type: in vivo; settings: single SC 30 nmol/kg, mean; for CL/F / Tmax / half-life: rat, plasma; for CL/F / Tmax / AUCINF/D / Cmax/D: n = 3; for half-life: n = 3, read-out: T l/2 (converted)
# Description: The pharmacokinetics of Compound II (SEQ ID NO:2), Compound IV (SEQ ID NO:4), Compound VI (SEQ ID NO:6), and Compound VIII (SEQ ID NO:8) are evaluated following a single subcutaneous administration of 30 nmol/kg to male Sprague Dawley rats. Blood samples are collected at 1, 3, 6, 12, 24, 48, 72, 96 hours post SC dose. The resulting individual plasma concentrations are used to calculate pharmacokinetic parameters. Peptide plasma (K3EDTA) concentrations are determined using a qualified LC/MS method that measured the intact mass of the peptides. Each peptide and an analog as an internal standard are extracted from plasma. A high resolution Thermo Q-Exactive is used for LC/MS detection.
# T2 sequence (O60894 27-148 partner, one chain of several): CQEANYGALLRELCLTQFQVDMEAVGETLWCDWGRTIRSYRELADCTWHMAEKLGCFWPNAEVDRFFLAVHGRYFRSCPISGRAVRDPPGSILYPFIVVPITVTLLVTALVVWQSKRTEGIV
SMILES,Ki [1] [nM],Ki (hAMY1R) [nM],"T Cell Proliferation Assay: protein, immunogenicity risk (CD4+ T cells)","T Cell Proliferation Assay: protein, positive donors (CD4+ T cells)",CL/F [2] [mL/h/kg],Tmax [2] [h],half-life [2] [h],AUCINF/D [2] [hr * kg * nmol/L/nmol],Cmax/D [2] [kg * nmol/L/nmol]
"CC(C)C[C@H](NC(=O)[C@H](CCCN)NC(=O)CNC(=O)[C@@H](NC(=O)[C@H](C)NC(=O)[C@@H]1CSCSC[C@H](NC(=O)CC[C@H](N)C(=O)O)C(=O)N[C@@H](CC(N)=O)C(=O)N[C@@H]([C@@H](C)O)C(=O)N[C@@H](C)C(=O)N[C@@H]([C@@H](C)O)C(=O)N1)[C@@H](C)O)C(=O)N[C@@H](C)C(=O)N[C@@H](CCC(=O)O)C(=O)N[C@@](C)(Cc1ccccc1)C(=O)N[C@@H](CC(C)C)C(=O)N[C@H](C(=O)N[C@@H](CCCNC(=N)N)C(=O)N[C@@H](CO)C(=O)N[C@@H](CO)C(=O)N[C@@H](CC(N)=O)C(=O)N(C)[C@@H](CC(=O)O)C(=O)N[C@@H](Cc1ccccc1)C(=O)NCC(=O)N1CCC[C@H]1C(=O)N[C@@H](CCCCNC(=O)CC[C@H](NC(=O)CC[C@H](NC(=O)CCCCCCCCCCCCCCCCCCC(=O)O)C(=O)O)C(=O)O)C(=O)N[C@@H](CC(C)C)C(=O)N1CCC[C@H]1C(=O)N1CCC[C@H]1C(=O)N[C@H](C(=O)N[C@@H](CCC(=O)O)C(=O)N[C@H](C(=O)NCC(=O)N[C@@H](CO)C(=O)N[C@@H](CC(N)=O)C(=O)N[C@H](C(=O)N[C@@H](Cc1ccc(O)cc1)C(N)=O)[C@@H](C)O)C(C)C)[C@@H](C)O)C(C)C [Compound IV, γE-CNTATCATG-Orn-LAE-αMeF-LVRSSN-NMeD-FGPKLPPTEVGSNTY-NH2] (γGlu-CNTATCATG[Orn]LAE[αMeF]LVRSSN[NMeD]FGPK([γGlu-γGlu-C20 diacid])LPPTEVGSNTY-NH2; linker 1-6 via CH2)",665 ± 113,0.0296 ± 0.0099,Low Risk,(0/9,1.8,20 ± 6.9,66.9 ± 27.6,551 ± 27.1,5.5 ± 2.1
CC(C)C[C@H](NC(=O)[C@H](CCCN)NC(=O)CNC(=O)[C@@H](NC(=O)[C@H](C)NC(=O)[C@@H]1CSCSC[C@H](NC(=O)CC[C@H](N)C(=O)O)C(=O)N[C@@H](CC(N)=O)C(=O)N[C@@H]([C@@H](C)O)C(=O)N[C@@H](C)C(=O)N[C@@H]([C@@H](C)O)C(=O)N1)[C@@H](C)O)C(=O)N[C@@H](C)C(=O)N[C@@H](CCC(=O)O)C(=O)N[C@@](C)(Cc1ccccc1)C(=O)N[C@@H](CC(C)C)C(=O)N[C@H](C(=O)N[C@@H](CCCNC(=N)N)C(=O)N[C@@H](CO)C(=O)N[C@@H](CO)C(=O)N[C@@H](CC(N)=O)C(=O)N(C)[C@@H](CC(N)=O)C(=O)N[C@@H](Cc1ccccc1)C(=O)NCC(=O)N1CCC[C@H]1C(=O)N[C@@H](CCCCNC(=O)CC[C@H](NC(=O)CC[C@H](NC(=O)CCCCCCCCCCCCCCCCCCC(=O)O)C(=O)O)C(=O)O)C(=O)N[C@@H](CC(C)C)C(=O)N1CCC[C@H]1C(=O)N1CCC[C@H]1C(=O)N[C@H](C(=O)N[C@@H](CCC(=O)O)C(=O)N[C@H](C(=O)NCC(=O)N[C@@H](CO)C(=O)N[C@@H](CC(N)=O)C(=O)N[C@H](C(=O)N[C@@H](Cc1ccc(O)cc1)C(N)=O)[C@@H](C)O)C(C)C)[C@@H](C)O)C(C)C [Compound II] (γGlu-CNTATCATG[Orn]LAE[αMeF]LVRSSN[NMeN]FGPK([γGlu-γGlu-C20 diacid])LPPTEVGSNTY-NH2; linker 1-6 via CH2),202 ± 45,0.017 ± 0.006,Low Risk,(0/9,,24,,473 ± 63.8,4.9 ± 0.9
"CC[C@H](C)[C@H](NC(=O)[C@@H]1CCCN1C(=O)CNC(=O)[C@H](Cc1ccccc1)NC(=O)[C@H](CC(=O)O)N(C)C(=O)[C@H](CC(N)=O)NC(=O)[C@H](CO)NC(=O)[C@H](CO)NC(=O)[C@H](CCCNC(=N)N)NC(=O)[C@@H](NC(=O)[C@H](CC(C)C)NC(=O)[C@](C)(Cc1ccccc1)NC(=O)[C@H](CCC(=O)O)NC(=O)[C@H](C)NC(=O)[C@H](CC(C)C)NC(=O)[C@H](CCCN)NC(=O)CNC(=O)[C@@H](NC(=O)[C@H](C)NC(=O)[C@@H]1CSCSC[C@H](NC(=O)[C@@H](N)CCCCNC(=O)CC[C@H](NC(=O)CC[C@H](NC(=O)CCCCCCCCCCCCCCCCCCC(=O)O)C(=O)O)C(=O)O)C(=O)N[C@@H](CCC(=O)O)C(=O)N[C@@H]([C@@H](C)O)C(=O)N[C@@H](C)C(=O)N[C@@H]([C@@H](C)O)C(=O)N1)[C@@H](C)O)C(C)C)C(=O)N[C@@H](CC(C)C)C(=O)N1CCC[C@H]1C(=O)N1CCC[C@H]1C(=O)N[C@H](C(=O)N[C@@H](CCC(=O)O)C(=O)N[C@H](C(=O)NCC(=O)N[C@@H](CO)C(=O)N[C@@H](CC(N)=O)C(=O)N[C@H](C(=O)N[C@@H](Cc1ccc(O)cc1)C(N)=O)[C@@H](C)O)C(C)C)[C@@H](C)O [Compound VI, KCETATCATG-Orn-LAE-αMeF-LVRSSN-NMeD-FGPILPPTEVGSNTY-NH2] (H-K([γGlu-γGlu-C20 diacid])CETATCATG[Orn]LAE[αMeF]LVRSSN[NMeD]FGPILPPTEVGSNTY-NH2; linker 2-7 via CH2)",235 ± 45,0.0445 ± 0.0082,Low Risk,(1/9,2,24,54 ± 8.4,506 ± 26.6,5.4 ± 0.5
